The source made the active and inactive calls.

The target in experiment [1] is T1, RNA-binding protein pos-1 (Caenorhabditis elegans, UniProt G5EF15).
T1 sequence (G5EF15 whole entry): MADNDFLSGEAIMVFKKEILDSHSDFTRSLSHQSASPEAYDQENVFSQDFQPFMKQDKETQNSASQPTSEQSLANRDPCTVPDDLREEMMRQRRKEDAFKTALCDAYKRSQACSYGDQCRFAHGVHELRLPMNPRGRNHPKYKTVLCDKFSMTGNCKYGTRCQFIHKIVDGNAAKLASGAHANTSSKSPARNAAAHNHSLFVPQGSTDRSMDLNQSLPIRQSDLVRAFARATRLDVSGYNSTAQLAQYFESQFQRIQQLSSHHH
Nature of the experiment: inhibitors of POS-1/mex-3 RNA binding, dose response, biochemical, fluorescence polarization (AID 1964).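 Further: purified POS-1 fused to maltose binding protein made in E. coli; potency of compounds blocking POS-1 binding to fluorescent RNA.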

A short description of experiment [2]: Luminescence Cell-Based Dose Confirmation HTS to Identify Activators of 5'UTR Stem-Loop Driven Alpha-Synuclein mRNA Translation in H4 Neuroglioblastoma Cells. [Related pubchem assays: 1829 (Project Summary), 1814 (Primary HTS)]. Format: functional.
Experiment [3] in a line: Luminescence Cell-Based Dose Response HTS to Identify Activators of Luciferase Translation or Activity in H4 […] Cells. [Related pubchem assays: 1829 (Project Summary), 1814 (Primary HTS)]. Format: functional.
For a further experiment, the system named is H4. Briefly: Luminescence Cell-Based Dose Response HTS to Identify Activators of 5'UTR Stem-Loop Driven Prion Protein mRNA Translation in H4 Neuroglioblastoma Cells. [Related pubchem assays: 1829 (Project Summary), 1814 (Primary HTS)]. Format: functional. The conditions noted are these: Homo sapiens.
The target of experiment [4] is T2, Zinc finger protein mex-5 (Caenorhabditis elegans, UniProt Q9XUB2).
T2 sequence (Q9XUB2 whole entry): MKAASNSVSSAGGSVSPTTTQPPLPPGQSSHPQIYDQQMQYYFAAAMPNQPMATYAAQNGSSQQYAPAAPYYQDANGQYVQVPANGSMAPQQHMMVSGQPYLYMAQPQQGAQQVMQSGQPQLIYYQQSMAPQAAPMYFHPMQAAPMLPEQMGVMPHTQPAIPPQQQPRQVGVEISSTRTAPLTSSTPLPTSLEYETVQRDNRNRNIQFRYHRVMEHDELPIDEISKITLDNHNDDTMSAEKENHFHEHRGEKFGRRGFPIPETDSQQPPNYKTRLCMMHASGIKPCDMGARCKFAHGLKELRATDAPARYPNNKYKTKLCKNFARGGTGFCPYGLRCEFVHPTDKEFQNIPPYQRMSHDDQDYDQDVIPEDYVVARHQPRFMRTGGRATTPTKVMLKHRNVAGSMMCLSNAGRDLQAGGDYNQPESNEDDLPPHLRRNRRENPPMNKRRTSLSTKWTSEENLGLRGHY
Briefly: MEX-5/TCR-2 RNA interaction inhibitors, dose response, biochemical, C. elegans, fluorescence polarization (AID 1960). A general note: Fluorescence polarisation rises when a labelled molecule tumbles more slowly, as on binding a larger partner.

The target of another experiment is Troponin, cardiac muscle (Homo sapiens, UniProt P19429+P45379+P63316). Nature of the experiment: Fluorescence-based biochemical high throughput dose response assay for activators of the calcium sensitivity of cardiac Regulated Thin Filaments (RTF). [Related pubchem assays (depositor defined):AID493008, AID493018, AID504382, AID504383]. Format: protein-complex assay.

The target in a further experiment is Beta-galactosidase (Escherichia coli, UniProt Q8VNN2). Nature of the experiment: beta-galactosidase enzyme inhibitors and activators, dose response, artefact control for CCR6 antagonist project, biochemical, E. coli enzyme, set 3 (AID 504712). Format: functional.
Experiment [5] addresses T3, Microphthalmia-associated transcription factor (Homo sapiens, UniProt O75030).
T3 sequence (O75030 whole entry): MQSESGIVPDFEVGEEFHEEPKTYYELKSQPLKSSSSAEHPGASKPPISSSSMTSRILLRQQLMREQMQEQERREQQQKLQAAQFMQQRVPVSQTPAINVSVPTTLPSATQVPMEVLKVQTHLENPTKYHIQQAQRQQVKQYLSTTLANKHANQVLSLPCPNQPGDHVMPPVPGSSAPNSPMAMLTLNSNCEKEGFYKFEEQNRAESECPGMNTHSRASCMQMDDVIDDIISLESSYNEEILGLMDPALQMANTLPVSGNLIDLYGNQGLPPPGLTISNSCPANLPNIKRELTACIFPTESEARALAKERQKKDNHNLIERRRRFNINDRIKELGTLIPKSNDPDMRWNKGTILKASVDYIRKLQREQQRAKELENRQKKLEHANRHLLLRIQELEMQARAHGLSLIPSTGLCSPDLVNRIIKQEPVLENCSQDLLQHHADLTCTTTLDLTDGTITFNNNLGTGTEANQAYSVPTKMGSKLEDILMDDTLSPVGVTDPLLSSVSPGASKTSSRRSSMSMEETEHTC
Nature of the experiment: TRPM1 promoter luciferase signal decrease, dose response, MITF inhibitor project, cell-based, SK-MEL-5, cherry-picked, set 3 (AID 493073).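 Further: SK-MEL-5 melanoma cells with luciferase driven by the MITF target TRPM1 promoter.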 Format: functional.

A further experiment deals with H9c2. Briefly: cells. Format: functional, cell-based. The settings on record: Rattus norvegicus, H9c2, Myocardium.
A short description of experiment [6]: AlphaScreen signal interference compounds, dose response, artefact control for ARNT-TACC3 interaction inhibitor project, biochemical, luminescence, cherry-pick (AID 651705).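 Further: AlphaScreen bead proximity signal that flags compounds interfering with the detection technology; potency reflects signal decrease which marks the compound as an assay artifact.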 Format: functional. In general terms: Alpha assays give light when donor and acceptor beads are brought close together.
For experiment [7], the target named is T4, Voltage-gated N-type calcium channel alpha-1B subunit/Amyloid beta A4 precursor protein-binding family A member 1 (Homo sapiens, UniProt Q00975+Q02410). Format: protein assay.
For experiment [8], the target named is T4, Voltage-gated N-type calcium channel alpha-1B subunit/Amyloid beta A4 precursor protein-binding family A member 1. Format: protein assay. The source holds these as a separate data set.
In another experiment the target is T5, Hexokinase HKDC1 (Homo sapiens, UniProt Q2TB90).
T5 sequence (Q2TB90 whole entry): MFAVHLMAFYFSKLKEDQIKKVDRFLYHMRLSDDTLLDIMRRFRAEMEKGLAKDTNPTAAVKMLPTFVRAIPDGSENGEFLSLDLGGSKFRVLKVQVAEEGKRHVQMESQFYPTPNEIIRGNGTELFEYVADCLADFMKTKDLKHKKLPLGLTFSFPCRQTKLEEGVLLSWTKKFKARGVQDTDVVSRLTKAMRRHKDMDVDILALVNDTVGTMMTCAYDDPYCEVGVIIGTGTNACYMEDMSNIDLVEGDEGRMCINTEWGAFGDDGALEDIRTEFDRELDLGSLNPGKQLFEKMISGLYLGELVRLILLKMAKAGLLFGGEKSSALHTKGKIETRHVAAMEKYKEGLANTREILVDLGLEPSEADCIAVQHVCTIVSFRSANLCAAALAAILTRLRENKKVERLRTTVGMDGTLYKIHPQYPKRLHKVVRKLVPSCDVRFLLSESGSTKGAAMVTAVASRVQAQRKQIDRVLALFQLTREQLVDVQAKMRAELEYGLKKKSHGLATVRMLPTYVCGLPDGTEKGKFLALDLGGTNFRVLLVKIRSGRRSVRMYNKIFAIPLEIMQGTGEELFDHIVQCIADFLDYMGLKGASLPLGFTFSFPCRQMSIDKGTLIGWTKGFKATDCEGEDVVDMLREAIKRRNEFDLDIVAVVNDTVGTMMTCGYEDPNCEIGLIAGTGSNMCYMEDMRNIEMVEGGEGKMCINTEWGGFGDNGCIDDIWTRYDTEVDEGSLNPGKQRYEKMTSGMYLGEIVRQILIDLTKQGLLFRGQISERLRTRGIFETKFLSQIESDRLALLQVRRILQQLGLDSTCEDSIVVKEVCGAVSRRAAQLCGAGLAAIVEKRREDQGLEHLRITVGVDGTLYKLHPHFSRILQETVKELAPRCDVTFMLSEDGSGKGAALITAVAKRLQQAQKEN
Briefly: HKDC1 hexokinase activators, dose response, biochemical, W721R variant (AID 504730). Format: functional.

A further experiment concerns the target T6, Hexokinase-1 (Homo sapiens, UniProt P19367).
T6 sequence (P19367 whole entry): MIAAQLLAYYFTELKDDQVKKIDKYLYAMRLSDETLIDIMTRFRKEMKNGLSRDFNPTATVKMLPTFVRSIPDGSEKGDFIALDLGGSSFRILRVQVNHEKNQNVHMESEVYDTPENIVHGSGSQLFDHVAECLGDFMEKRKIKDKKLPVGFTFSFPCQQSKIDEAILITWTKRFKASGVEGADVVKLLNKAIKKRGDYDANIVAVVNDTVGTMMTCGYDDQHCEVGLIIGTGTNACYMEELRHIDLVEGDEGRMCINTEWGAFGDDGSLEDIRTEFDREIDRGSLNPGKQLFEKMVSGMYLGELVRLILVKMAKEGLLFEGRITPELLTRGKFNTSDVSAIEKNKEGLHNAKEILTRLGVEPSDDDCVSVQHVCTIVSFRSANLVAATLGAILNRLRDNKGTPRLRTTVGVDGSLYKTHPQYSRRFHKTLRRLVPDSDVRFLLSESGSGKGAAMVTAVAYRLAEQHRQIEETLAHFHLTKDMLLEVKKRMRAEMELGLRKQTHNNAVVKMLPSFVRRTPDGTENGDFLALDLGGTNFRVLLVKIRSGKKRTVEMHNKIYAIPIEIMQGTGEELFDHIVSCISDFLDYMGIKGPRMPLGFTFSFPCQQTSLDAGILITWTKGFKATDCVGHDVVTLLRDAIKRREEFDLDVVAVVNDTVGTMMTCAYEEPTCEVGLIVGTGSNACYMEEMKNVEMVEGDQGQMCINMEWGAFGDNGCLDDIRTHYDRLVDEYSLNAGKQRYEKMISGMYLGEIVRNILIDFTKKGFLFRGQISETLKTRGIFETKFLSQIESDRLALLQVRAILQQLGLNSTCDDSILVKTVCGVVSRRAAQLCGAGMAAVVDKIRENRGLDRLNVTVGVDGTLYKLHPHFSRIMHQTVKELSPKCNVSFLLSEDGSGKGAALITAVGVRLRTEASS
Briefly: hexokinase 1 activators, dose response, selectivity assay for HKDC1 activator project, biochemical (AID 504762). Format: functional.

Experiment [9] has as its target T7, Carboxy-terminal domain RNA polymerase II polypeptide A small phosphatase 1 (Homo sapiens, UniProt Q9GZU7).
T7 sequence (Q9GZU7 whole entry): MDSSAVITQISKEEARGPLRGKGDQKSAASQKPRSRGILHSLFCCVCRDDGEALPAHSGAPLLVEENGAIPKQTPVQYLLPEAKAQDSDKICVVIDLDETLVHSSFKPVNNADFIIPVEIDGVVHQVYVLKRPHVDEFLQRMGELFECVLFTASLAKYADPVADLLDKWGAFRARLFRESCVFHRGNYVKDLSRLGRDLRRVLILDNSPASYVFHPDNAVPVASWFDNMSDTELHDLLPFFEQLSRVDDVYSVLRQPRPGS
Briefly: inhibitors of CTDSP1, concentration-response testing, biochemical assay, absorbance-based, actives from ultra-high-throughput screening (AID 540297). Format: functional.

A further experiment concerns the target Nonstructural protein 1 (Influenza A virus, UniProt Q194T2). Format: functional, Influenza A virus (A/California/07/2009(H1N1)).

T4 sequence (Q00975 whole entry): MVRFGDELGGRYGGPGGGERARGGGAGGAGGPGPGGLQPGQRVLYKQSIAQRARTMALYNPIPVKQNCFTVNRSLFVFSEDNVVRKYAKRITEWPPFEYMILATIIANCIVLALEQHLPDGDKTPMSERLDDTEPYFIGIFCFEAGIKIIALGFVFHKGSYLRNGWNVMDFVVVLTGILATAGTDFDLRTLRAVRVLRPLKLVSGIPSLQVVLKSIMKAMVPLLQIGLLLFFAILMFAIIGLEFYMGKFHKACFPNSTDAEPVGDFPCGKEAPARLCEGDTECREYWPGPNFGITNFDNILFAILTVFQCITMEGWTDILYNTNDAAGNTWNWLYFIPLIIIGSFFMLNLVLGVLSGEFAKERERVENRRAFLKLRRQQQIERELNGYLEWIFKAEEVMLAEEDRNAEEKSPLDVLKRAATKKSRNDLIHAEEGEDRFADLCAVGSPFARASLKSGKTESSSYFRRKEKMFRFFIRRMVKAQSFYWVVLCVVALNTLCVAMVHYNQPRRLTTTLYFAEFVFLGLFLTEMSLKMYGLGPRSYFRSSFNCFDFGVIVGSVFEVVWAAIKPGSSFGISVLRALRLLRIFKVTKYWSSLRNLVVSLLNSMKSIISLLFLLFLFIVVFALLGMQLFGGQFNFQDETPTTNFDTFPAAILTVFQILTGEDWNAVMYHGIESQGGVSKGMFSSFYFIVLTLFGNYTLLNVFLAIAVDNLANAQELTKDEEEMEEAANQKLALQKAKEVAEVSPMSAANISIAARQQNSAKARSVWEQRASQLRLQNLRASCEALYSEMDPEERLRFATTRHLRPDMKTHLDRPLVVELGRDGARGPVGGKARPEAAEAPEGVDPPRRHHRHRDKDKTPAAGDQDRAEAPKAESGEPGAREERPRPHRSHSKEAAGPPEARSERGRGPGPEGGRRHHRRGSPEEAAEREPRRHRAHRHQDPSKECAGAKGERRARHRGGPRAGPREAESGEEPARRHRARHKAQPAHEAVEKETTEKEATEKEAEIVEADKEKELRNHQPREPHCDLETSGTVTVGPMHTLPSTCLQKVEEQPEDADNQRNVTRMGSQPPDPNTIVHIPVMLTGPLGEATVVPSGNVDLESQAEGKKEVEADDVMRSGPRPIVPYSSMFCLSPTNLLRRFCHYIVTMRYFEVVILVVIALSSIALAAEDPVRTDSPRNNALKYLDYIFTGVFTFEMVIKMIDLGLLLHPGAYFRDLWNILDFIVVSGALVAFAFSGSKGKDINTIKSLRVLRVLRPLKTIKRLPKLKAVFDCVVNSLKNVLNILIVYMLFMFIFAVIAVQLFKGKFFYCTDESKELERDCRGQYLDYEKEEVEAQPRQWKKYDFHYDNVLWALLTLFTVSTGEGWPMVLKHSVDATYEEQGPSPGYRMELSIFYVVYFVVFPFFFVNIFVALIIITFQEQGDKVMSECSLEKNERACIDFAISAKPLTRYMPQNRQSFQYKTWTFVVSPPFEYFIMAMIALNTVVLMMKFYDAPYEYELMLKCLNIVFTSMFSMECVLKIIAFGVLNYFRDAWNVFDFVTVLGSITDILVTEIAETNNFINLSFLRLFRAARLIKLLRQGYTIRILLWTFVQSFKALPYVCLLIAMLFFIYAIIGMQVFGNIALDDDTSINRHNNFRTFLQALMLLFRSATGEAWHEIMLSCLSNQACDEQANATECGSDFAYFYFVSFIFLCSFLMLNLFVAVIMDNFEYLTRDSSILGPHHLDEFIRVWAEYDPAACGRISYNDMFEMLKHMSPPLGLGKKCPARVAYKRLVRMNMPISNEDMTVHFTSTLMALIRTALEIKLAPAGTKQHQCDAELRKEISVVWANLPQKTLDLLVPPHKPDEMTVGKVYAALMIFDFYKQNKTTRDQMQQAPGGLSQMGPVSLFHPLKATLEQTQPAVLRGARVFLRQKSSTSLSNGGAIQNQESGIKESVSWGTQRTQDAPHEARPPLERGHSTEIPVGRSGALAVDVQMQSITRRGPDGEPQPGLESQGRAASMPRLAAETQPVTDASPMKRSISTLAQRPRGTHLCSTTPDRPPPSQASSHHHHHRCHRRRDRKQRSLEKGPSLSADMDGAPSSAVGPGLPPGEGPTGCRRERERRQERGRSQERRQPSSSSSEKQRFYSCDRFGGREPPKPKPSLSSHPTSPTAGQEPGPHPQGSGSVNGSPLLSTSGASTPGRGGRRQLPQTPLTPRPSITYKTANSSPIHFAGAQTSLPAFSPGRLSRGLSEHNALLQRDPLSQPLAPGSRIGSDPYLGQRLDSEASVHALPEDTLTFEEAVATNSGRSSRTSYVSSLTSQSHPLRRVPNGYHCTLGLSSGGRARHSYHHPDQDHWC
T4 sequence (Q02410 whole entry): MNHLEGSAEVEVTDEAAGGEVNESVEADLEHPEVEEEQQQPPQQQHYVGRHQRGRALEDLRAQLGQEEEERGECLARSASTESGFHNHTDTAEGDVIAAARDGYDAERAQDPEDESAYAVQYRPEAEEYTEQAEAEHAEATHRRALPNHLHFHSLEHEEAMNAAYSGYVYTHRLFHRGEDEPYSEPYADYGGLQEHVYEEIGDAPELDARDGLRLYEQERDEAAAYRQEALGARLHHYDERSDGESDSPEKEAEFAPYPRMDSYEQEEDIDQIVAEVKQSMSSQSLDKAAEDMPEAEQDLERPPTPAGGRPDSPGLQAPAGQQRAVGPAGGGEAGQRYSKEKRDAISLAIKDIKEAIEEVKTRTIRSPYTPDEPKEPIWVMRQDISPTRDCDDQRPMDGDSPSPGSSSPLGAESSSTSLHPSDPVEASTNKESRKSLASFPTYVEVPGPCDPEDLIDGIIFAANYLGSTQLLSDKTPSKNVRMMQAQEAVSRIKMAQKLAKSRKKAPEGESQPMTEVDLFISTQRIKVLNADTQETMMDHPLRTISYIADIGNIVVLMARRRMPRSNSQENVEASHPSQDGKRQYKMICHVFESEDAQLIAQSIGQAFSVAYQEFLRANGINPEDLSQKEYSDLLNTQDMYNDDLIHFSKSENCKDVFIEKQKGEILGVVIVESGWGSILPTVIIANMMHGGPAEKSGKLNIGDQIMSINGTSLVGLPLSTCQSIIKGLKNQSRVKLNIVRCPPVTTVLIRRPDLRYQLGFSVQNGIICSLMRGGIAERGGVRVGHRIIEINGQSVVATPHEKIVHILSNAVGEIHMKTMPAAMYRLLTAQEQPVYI
Chain of Beta-galactosidase (Q8VNN2 whole entry): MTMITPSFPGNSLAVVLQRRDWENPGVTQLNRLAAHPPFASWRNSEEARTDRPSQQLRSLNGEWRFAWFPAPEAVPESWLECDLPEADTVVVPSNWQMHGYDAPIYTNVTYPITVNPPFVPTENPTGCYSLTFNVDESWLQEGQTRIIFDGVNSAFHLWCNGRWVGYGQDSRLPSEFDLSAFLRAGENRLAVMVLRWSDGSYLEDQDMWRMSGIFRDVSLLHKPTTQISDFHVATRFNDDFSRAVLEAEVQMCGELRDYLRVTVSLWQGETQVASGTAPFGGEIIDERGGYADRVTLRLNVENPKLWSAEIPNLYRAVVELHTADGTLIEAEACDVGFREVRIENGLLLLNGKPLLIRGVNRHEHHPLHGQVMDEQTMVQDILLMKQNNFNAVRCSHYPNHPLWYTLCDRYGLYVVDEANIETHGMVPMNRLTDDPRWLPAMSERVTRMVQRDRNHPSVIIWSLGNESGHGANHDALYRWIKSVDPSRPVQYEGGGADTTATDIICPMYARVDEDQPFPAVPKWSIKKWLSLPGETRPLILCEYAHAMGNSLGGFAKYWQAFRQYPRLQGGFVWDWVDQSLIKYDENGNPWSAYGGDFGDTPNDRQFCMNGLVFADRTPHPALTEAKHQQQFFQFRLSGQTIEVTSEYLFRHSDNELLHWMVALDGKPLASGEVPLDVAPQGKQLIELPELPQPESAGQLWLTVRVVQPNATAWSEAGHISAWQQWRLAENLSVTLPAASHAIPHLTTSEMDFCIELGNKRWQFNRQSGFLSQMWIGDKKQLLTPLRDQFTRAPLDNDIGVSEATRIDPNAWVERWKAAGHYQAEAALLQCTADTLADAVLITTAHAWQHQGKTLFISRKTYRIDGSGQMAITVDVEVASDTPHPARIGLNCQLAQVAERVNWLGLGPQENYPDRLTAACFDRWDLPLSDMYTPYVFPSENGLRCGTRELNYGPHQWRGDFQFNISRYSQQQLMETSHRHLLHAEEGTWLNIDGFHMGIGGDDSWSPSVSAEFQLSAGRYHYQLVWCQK
Chain of Nonstructural protein 1 (Q194T2 whole entry): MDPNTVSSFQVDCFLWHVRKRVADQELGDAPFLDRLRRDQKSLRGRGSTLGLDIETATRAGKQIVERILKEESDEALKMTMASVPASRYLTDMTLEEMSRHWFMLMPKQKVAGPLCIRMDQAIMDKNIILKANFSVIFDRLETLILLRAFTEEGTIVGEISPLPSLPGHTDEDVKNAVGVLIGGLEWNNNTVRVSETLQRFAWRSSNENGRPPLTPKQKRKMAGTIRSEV

Turning to `Cc1cc(/C=C2\SC(=S)N(Cc3ccco3)C2=O)c(C)n1-c1cccnc1`, the EC50 (as a rule, the concentration giving half of the maximal effect) in [1] is 11.3 µM (inconclusive); in [2] it was 45.2 µM (active); in experiment [3] it was 119 µM (active); with H4, 3.71 µM (active); in [4] it was 20.2 µM (inconclusive); on Troponin, cardiac muscle, > 2.65 µM (active).

Turning to `CC(Oc1ccccc1)C(=O)Nc1nc(-c2ccccn2)cs1` (stereo not drawn), the IC50 (as a rule, the concentration that gives 50% inhibition) on Beta-galactosidase is > 66.6 µM (inactive); in the experiment on H9c2, > 79 µM (inactive). The AC50 (in general, the midpoint of the concentration-response curve, whichever way the signal moves) was 14 µM (active) in [5] and 84.7 µM (active) in [6].

Turning to `COc1ccccc1NS(=O)(=O)c1cc(NC(=O)c2ccncc2)ccc1N1CCCC1`, the IC50 in [7] is 29 µM (active); in experiment [8] it was > 50 µM (inactive).

Regarding `COc1ccc2nc(C)c3cc(C)oc3c2c1`, the EC50 on Troponin, cardiac muscle is > 71.4 µM (inactive).

Take `N#CC1=C2SCN(c3ccc(F)cc3)CN2C(=O)CC1c1cccc(F)c1` (stereo not drawn): the values for the IC50 in experiment [7] and in [8] were 1.59 µM (active) and > 50 µM (inactive), respectively.

With `C=COc1ccc(N2C(=O)c3ccccc3OC2C)cc1` (stereo not drawn), the EC50 at Troponin, cardiac muscle is > 71.4 µM (inactive).

Turning to `COC(=O)c1c(NC(C)=O)sc(Cc2ccccc2)c1C`, the results for the EC50 on Hexokinase HKDC1 and at Hexokinase-1 were 23.9 µM (inactive) and 39.4 µM (inactive), respectively.

Turning to `Cc1ccc(C2=NN=C(Nc3ccc(F)cc3)SC2)cc1`, the EC50 was 10 µM (active) on Hexokinase HKDC1 and 17.8 µM (active) on Hexokinase-1.

As for `C[N+](C)(CCCCCC[N+](C)(C)CCCN1C(=O)c2cccc3cccc(c23)C1=O)CCCN1C(=O)c2cccc3cccc(c23)C1=O`, the EC50 on Hexokinase HKDC1 was 20.4 µM (inactive); on Hexokinase-1, 17.9 µM (active).

With `CC(/C=C/c1ccco1)=N\NC(=O)c1cccnc1`, the IC50 was 9.19 µM (active) in experiment [7], 17.8 µM (active) in experiment [8] and 21.3 µM (active) in experiment [9].

As for `C/C(=N\NC(=O)C1CCCN(S(=O)(=O)c2ccccc2)C1)c1ccccn1` (stereo not drawn), the IC50 at Beta-galactosidase is > 66.6 µM (inactive); at Nonstructural protein 1, 22.2 µM (active). Besides, the AC50 in experiment [6] is 77.8 µM (active).

The values above are taken from ChEMBL document CHEMBL1201862, “PubChem BioAssay data set” (2004).
